According to patent publication US20110224240A1 (Myrexis, Inc., priority 2010, published 2011):
Where “and” joins values, the source holds several entries; their conditions need not be identical. Equal entries are not always repeated. Where two headings read alike, the source gives them in different places. Marks after values point to notes of the source that are not given here.

Legend:
P388 = experiment: Multidrug resistant cell assay, cytotoxicity; format: cell-based, murine; settings: Mus musculus, P388, 72 h, read-out: Various MDR Cell Line Cytotoxicity IC50
P388/ADR (MDR-1) = experiment: Multidrug resistant cell assay, cytotoxicity; format: cell-based; settings: 72 hours, read-out: Various MDR Cell Line Cytotoxicity IC50
Method: P388/ADR cell lines were obtained from American Type Culture Collection (Manassas, Va.) and maintained in RPMI-1640 media supplemented with 10% FCS, 10 units/ml penicillin and streptomycin, 2 mM Glutamax and 1 mM sodium pyruvate (Invitrogen Corporation, Carlsbad, Calif.). […] Cells were allowed to adhere to the plate overnight and then incubated with the compound at final concentrations ranging from 0.13 nM to 10 uM for 72 hours. Cell viability was then assessed using the ATP-lite reagent (Perkin Elmer, Foster City, Calif.). Plates were read on a Wallac Topcount luminescence reader (Perkin Elmer, Foster City, Calif.) and the results graphed in Prism software (Graphpad Software, Inc., San Diego, Calif.). Non-linear regression with variable slope analysis was performed to obtain IC50 concentration values.

MCF-7 = experiment: Multidrug resistant cell assay, cytotoxicity; format: cell-based; settings: Homo sapiens, MCF7, 72 h, read-out: Various MDR Cell Line Cytotoxicity IC50
MCF-7/MX (BCRP-1) = experiment: Multidrug resistant cell assay, cytotoxicity; format: cell-based; settings: MCF7/MX, 72 h, read-out: Various MDR Cell Line Cytotoxicity IC50
A549 cells = experiment: Microtubule formation in A549 cells (FIG. 1); format: cell-based; settings: 100 nM, 1 μM, 10 μM
Method: FIG. 1 depicts the extent of microtubule formation in A549 cells treated with (2-aminomethylquinazolin-4-yl)-(4-methoxyphenyl)methylamine (“Compound 1”). The cells in panel “a” were treated with 100 nM concentration of Compound 1. The cells in panel “b” were treated with 1 μM concentration of Compound 1. The cells in panel “c” were treated with 10 μM concentration of Compound 1.
FIG. 1 depicts the extent of microtubule formation in A549 cells treated with Compound 1. The cells in panel “a” were treated with 100 nM concentration of Compound 1. The cells in panel “b” were treated with 1 μM concentration of Compound 1. The cells in panel “c” were treated with 10 μM concentration of Compound 1.

[1] = Pharmacokinetic study in mice, plasma; format: in vivo
Method: (§1) Animals were dosed with approximately 2.5 mg/kg i.v. in the tail vein or 5, 10, 30, or 60 mg/kg p.o. in fed and 60 mg/kg p.o. in a fasted state. Blood samples and whole brains were collected from five mice at each of the […] collection time points (approximately 0.05, 0.25, 1.0, 2.0, 4.0, 8.0, 12.0 and 24.0 hours) after administration of the dose. Plasma was collected from blood samples, and whole brain sample were homoginized. Both tissues were analyzed for the concentration of Compound 1. Pharmacokinetic parameters were estimated by non-compartmental analysis using WinNonlin.

[2] = Pharmacokinetic study in mice, brain; format: in vivo
Method: as §1

B16-F0 tumor = experiment: B16-F0 melanoma allograft study in nude mice; format: in vivo; settings: melanoma (B16-F0) allografts in nude mice, oral dosing (50 mg/kg qd×5 or 200 mg/kg qwk×2 p.o.), relative to vehicle
Method: Female Crl:Nu/Nu-nuBR mice (Charles River Labs, Wilmington, Mass.) were implanted subcutaneously with 10^6 B16-F0 cells in the right flank. Animals were housed by groups in Positive Individual Ventilation cages in flat-bottom cages with no more than ten mice per cage. Environmental controls were set to maintain a temperature between 65 and 75° F. with a relative humidity of 30-70% in a 12:12 hour light:dark cycle. Animals were fed and watered ad libitum. Tumors were allowed to grow to approximately 100 mm^3 and then mice were placed into test groups (N=10). Animals were treated with vehicle, 50 mg/kg Compound 1 qd×5 p.o. or 200 mg/kg Compound 1 qwk×2 p.o. The mice were observed daily for mortality and signs of toxicity. Tumor growth was monitored externally using a caliper and volumes calculated using the formula [p/6 (width^2×length)], in which width represents the smaller tumor diameter. Studies were completed when the first animal achieved a tumor volume >1500 mm^3. Statistical analysis of variance with unadjusted pair wise comparison was performed using SAS software (Cary, N.C.).

[3] = Pharmacokinetic study in a primate, plasma; format: in vivo, cynomolgus monkey; settings: for Compound 1 Plasma Concentration: cynomolgus monkey, oral 20 mg/kg
Method: A single non-naïve male cynomolgus monkey was assigned to this study. […] Compound 1 was administered once orally via a gavage tube. The gavage tube was rinsed with water and removed. Blood was removed through the femoral artery/vein into a tube containing K3EDTA. The samples were centrifuged and the resulting plasma was separated and stored at approximately −70° C. until shipment to the analysis site. At the analysis site, the samples were stored at −20° C. until the day of analysis.
Plasma samples were analyzed for Compound 1 concentration using a LC-MS/MS method. The range of quantitation was 5-5000 ng/mL and utilized a 0.1 mL plasma sample volume. Concentration-time curves were constructed using WinNonlin (version 5.1.1).

[4] = tested on: multiple cancer cell lines; experiment: Pro-apoptotic activity in multiple cancer cell lines; format: cell-based
NCI/ADR-Res (MDR-1) = experiment: Multidrug resistant cell assay, cytotoxicity; settings: 72 h, read-out: Various MDR Cell Line Cytotoxicity IC50
[5] = Swiss Webster, mouse, plasma, iv, 2.5 mg/kg, mice, Not Fasted
[6] = Swiss Webster, mouse, plasma, po, 60 mg/kg, mice, Fasted
[7] = Swiss Webster, mouse, plasma, po, 60 mg/kg, mice, Not Fasted
[8] = male cynomolgus monkey, fasted, single oral dose 20 mg/kg, plasma

Question: What does the source list for `COc1ccc(N(C)c2nc(CN)nc3ccccc23)cc1` [Compound 1]?
Answer: IC50 (P388): 18 nM; IC50 (P388/ADR (MDR-1)): 27 nM; IC50 (MCF-7): 27 nM; IC50 (MCF-7/MX (BCRP-1)): 9 nM; microtubule formation (A549 cells): inhibits microtubule formation; AUC(0-inf) [1, 5]: 467 ng·h/mL; Cmax [1, 5]: 513 ng/mL and 1.7 µM; Tmax [1, 5]: 0.05 h; half-life ([1]; Swiss Webster, mouse, plasma, iv, 2.5 mg/kg, mice, Not Fasted, IV, 2.5 mg/kg, read-out: Plasma t½ (converted)): 6.2 h; half-life ([1]; Swiss Webster, mouse, plasma, po, 60 mg/kg, 60 mg/kg dose in mice, oral, read-out: half life (t1/2) (converted)): ~10 h; bioavailability ([1]; Swiss Webster, mouse, plasma, po, 60 mg/kg, 60 mg/kg dose in mice, read-out: oral bioavailability): ~100%; AUC(0-inf) [1, 6]: 12900 ng·h/mL; Cmax [1, 6]: 1090 ng/mL and 3.7 µM; Tmax [1, 6]: 1 h; bioavailability ([1]; Swiss Webster, mouse, plasma, po, 60 mg/kg, mice, Fasted, PO, 60 mg/kg, read-out: % F): 115%; half-life ([1]; Swiss Webster, mouse, plasma, po, 60 mg/kg, mice, Fasted, PO, 60 mg/kg, read-out: Plasma t½ (converted)): 18.3 h; AUC(0-inf) [1, 7]: 10700 ng·h/mL; Cmax [1, 7]: 1120 ng/mL and 3.8 µM; Tmax [1, 7]: 0.25 h; bioavailability ([1]; Swiss Webster, mouse, plasma, po, 60 mg/kg, mice, Not Fasted, PO, 60 mg/kg, read-out: % F): 96%; half-life ([1]; Swiss Webster, mouse, plasma, po, 60 mg/kg, mice, Not Fasted, PO, 60 mg/kg, read-out: Plasma t½ (converted)): 10.8 h; clearance ([1]; Swiss Webster, mouse, plasma, mice, Not Fasted, IV, 2.5 mg/kg, read-out: Plasma CL (converted)): 89.3 mL/min/kg; bioavailability after oral dosing ([1]; mice): almost completely bioavailable; oral dose proportionality to plasma Cmax ([1]; mice dosed orally up to at least 60 mg/kg): Dose proportional increases in Cmax; differences in pharmacokinetics between fed and fasted animals ([1]; mice, 60 mg/kg p.o.): No significant differences in pharmacokinetics; Plasma CL ([1]; mice, Fasted, PO, 60 mg/kg): 77.8 mL/min/kg; Plasma V ([1]; mice, Fasted, PO, 60 mg/kg): 123.424 L/kg; Plasma V ([1]; mice, Not Fasted, IV, 2.5 mg/kg): 47.759 L/kg; Plasma CL ([1]; mice, Not Fasted, PO, 60 mg/kg): 93.05 mL/min/kg; Plasma V ([1]; mice, Not Fasted, PO, 60 mg/kg): 86.914 L/kg; Kp ([2]; Swiss Webster, mouse, brain, other: oral or intravenous, after oral or intravenous dosing, read-out: exposure in the brain relative to that in the plasma): ~7; Tmax ([2]; Swiss Webster, mouse, brain, mice, Not Fasted, PO, 60 mg/kg): 2 h; half-life ([2]; Swiss Webster, mouse, brain, mice, Not Fasted, PO, 60 mg/kg, read-out: Brain t½ (converted)): 9 h; Brain AUC(0-inf) ([2]; mice, Not Fasted, PO, 60 mg/kg): 77290 ng·h/mL; Brain CL ([2]; mice, Not Fasted, PO, 60 mg/kg): 12.9 mL/min/kg; Brain Cmax ([2]; mice, Not Fasted, PO, 60 mg/kg): 6030 ng/mL and 20.4 μM; Brain V ([2]; mice, Not Fasted, PO, 60 mg/kg): 10.109 L/kg; Kp ([2]; mouse, brain, po, Swiss Webster mice, single 60 mg/kg p.o. dose, read-out: Brain concentrations relative to plasma levels (AUC0-∞)): ~7; inhibition of tumor growth (B16-F0 tumor): Statistically significant (p<0.00005) inhibition of tumor growth; Compound 1 Plasma Concentration ([3]; Post Dose Sample Time 0): 3.08* ng/mL; Compound 1 Plasma Concentration ([3]; Post Dose Sample Time 0.25): 27.40 ng/mL; Compound 1 Plasma Concentration ([3]; Post Dose Sample Time 0.5): 64.15 ng/mL; Compound 1 Plasma Concentration ([3]; Post Dose Sample Time 1): 112.05 ng/mL; Compound 1 Plasma Concentration ([3]; Post Dose Sample Time 2): 166.01 ng/mL; Compound 1 Plasma Concentration ([3]; Post Dose Sample Time 6): 18.72 ng/mL; Compound 1 Plasma Concentration ([3]; Post Dose Sample Time 12): 3.91* ng/mL; oral bioavailability ([3]; male cynomolgus monkey dosed orally at 20 mg/kg): bioavailable; AUC(0-inf) [3, 8]: 536 ng·h/mL; CL/F [3, 8]: 622 mL/min/kg; Cmax [3, 8]: 166 ng/mL; Tlast [3, 8]: 12.0 h; Tmax [3, 8]: 2 h; half-life [3, 8]: 1.9 h; Vd/F ([3]; male cynomolgus monkey, fasted, single oral dose 20 mg/kg, plasma, read-out: Vz/F_obs): 102 L/kg; pro-apoptotic activity, potency ([4]; multiple cancer types including pancreatic, breast, colorectal, non-small cell lung, melanoma, ovarian cancers and leukemia): potency at low nanomolar concentrations; induction of apoptosis versus ABC transporter expression ([4]; regardless of expression levels of MDR-1 (Pgp-1), MRP-1, BCRP-1): equipotent for induction of apoptosis; IC50 (NCI/ADR-Res (MDR-1)): 13 nM
